Six compounds from US6479435B1, “Diaryl ethers and processes for their preparation and herbicidal and desiccant compositions containing them” (ISK Americas Incorporated, priority 1997, dated 2002) can be followed below.

For orientation: melting point means the temperature, or range, at which the solid turns liquid.

The structures appear in SMILES notation.

Data set [1] has as its system Grass Weeds. Kind of data set: Post-emergent application in combination with other herbicides, percent control of grass weeds. It is filed as in vivo. The procedure:
All test compounds were dissolved in acetone and applied to the test units in a volume of 187 l/ha. Test materials were applied at rates ranging from 125 g ai/ha to 1000 g ai/ha using a track sprayer equipped with a TJ8001E even flow flat fan spray nozzle. Plants were arranged on a shelf so that the top of the canopy (post-emerge) or top of the soil surface (pre-emerge) was 40-45 cm below the nozzle. Pressurized air was used to force the test solution through the nozzle as it was mechanically advanced (via electrically driven chain drive) over the top of all test plants/pots. This application simulates a typical commercial field herbicide application. In the post-emerge test, a commercial non-ionic surfactant was also included (0.25% v/v) to enhance wetting of the leaf surfaces Qf target plants at rates ranging from 63 g ai/ha to 1000 g ai/ha. For post-emerge tests, seeds were planted 8-21 days prior to the test to allow emergence and good foliage development prior to application of the test substances. At the time of the post-emerge application, plants of all species were usually at the 2-3 leaf stage of development. Post-emerge test units were always bottom-watered. At 14 days after application of the test materials, phytotoxicity ratings were recorded. A rating scale of 0-100 was used as previously described in Research Methods in Weed Science, 2nd edition, B. Truelove, Ed., Southern Weed Science Society, Auburn University, Auburn, Ala., 1977. Briefly, “0” corresponds to no damage and “100” corresponds to complete death of all plants in the test unit. This scale was used both to determine efficacy against weed species and damage to crop species. Herbicide activity data for various compounds of this invention, which are shown by compound number in Tables 1-9, are shown in Tables 13 and 14. […] (Note: Weed species abbreviations are from the Composite List of Weeds published by the Weed Science Society of America, 1989.) The following examples illustrate the utility of combinations of compounds of this invention and existing herbicides. The methods used are identical to those for the application of single compounds except the commercial formulations of existing herbicides were added to the spray mixture in the appropriate amounts before spraying. Combination Example 3. Post-emergent Application of Compound 9-1 with Nicosulfuron Combination Example 4. Postemergent Application of Compound 9-1 with Pyridate

Data set [2] relates to Broadleaf Weeds. Kind of data set: Post-emergent application in combination with other herbicides, percent control of broadleaf weeds. It is filed as in vivo. The procedure: All test compounds were dissolved in acetone and applied to the test units in a volume of 187 l/ha. Test materials were applied at rates ranging from 125 g ai/ha to 1000 g ai/ha using a track sprayer equipped with a TJ8001E even flow flat fan spray nozzle. Plants were arranged on a shelf so that the top of the canopy (post-emerge) or top of the soil surface (pre-emerge) was 40-45 cm below the nozzle. Pressurized air was used to force the test solution through the nozzle as it was mechanically advanced (via electrically driven chain drive) over the top of all test plants/pots. This application simulates a typical commercial field herbicide application. […] For post-emerge tests, seeds were planted 8-21 days prior to the test to allow emergence and good foliage development prior to application of the test substances. At the time of the post-emerge application, plants of all species were usually at the 2-3 leaf stage of development. Post-emerge test units were always bottom-watered. At 14 days after application of the test materials, phytotoxicity ratings were recorded. A rating scale of 0-100 was used as previously described in Research Methods in Weed Science, 2nd edition, B. Truelove, Ed., Southern Weed Science Society, Auburn University, Auburn, Ala., 1977. Briefly, “0” corresponds to no damage and “100” corresponds to complete death of all plants in the test unit. This scale was used both to determine efficacy against weed species and damage to crop species. Herbicide activity data for various compounds of this invention, which are shown by compound number in Tables 1-9, are shown in Tables 13 and 14. […] (Note: Weed species abbreviations are from the Composite List of Weeds published by the Weed Science Society of America, 1989.) The following examples illustrate the utility of combinations of compounds of this invention and existing herbicides. The methods used are identical to those for the application of single compounds except the commercial formulations of existing herbicides were added to the spray mixture in the appropriate amounts before spraying. Combination Example 3. Post-emergent Application of Compound 9-1 with Nicosulfuron Combination Example 4. Postemergent Application of Compound 9-1 with Pyridate

Compound `CCS(=O)(=O)c1cccnc1Oc1cc(-n2c(=O)cc(C(F)(F)F)n(N)c2=O)c(F)cc1Cl` [Compound 9-13, 1-Amino-3-[4-Chloro-2-fluoro-5-(3-ethylsulfonyl-2-pyridyloxy)phenyl]-6-trifluoromethyl-1,2,3,4-tetrahydropyrimidine-2,4-dione] registered a melting point of 277 to 279 °C.
Still for that read-out and setting: under `CS(=O)(=O)c1cccnc1Oc1cc(-n2c(=O)cc(C(F)(F)F)n(N)c2=O)c(F)cc1Cl` [Compound 9-19, 1-Amino-3-[4-chloro-2-fluoro-5-(3-methylsulfonyl-2-pyridyloxy)phenyl]-6-trifluoromethyl-1,2,3,4-tetrahydropyrimidine-2,4-dione] stands 276 to 278 °C; under `N#Cc1ccccc1Oc1cc(-n2c(=O)cc(C(F)(F)F)n(N)c2=O)c(F)cc1Cl` [Compound 9-30, 1-Amino-3-[4-chloro2-fluoro-5-(2-cyanophenoxy)phenyl]-6-trifluoromethyl-1,2,3,4-tetrahydropyrimidine-2,4-dione], 220 to 222 °C; under `N#Cc1c(F)cccc1Oc1cc(-n2c(=O)cc(C(F)(F)F)n(N)c2=O)c(F)cc1Cl` [Compound 9-31, 1-Amino-3-[4-chloro-2-fluoro-5-(2-cyano-3-fluorophenoxy)phenyl]-6-trifluoromethyl-1,2,3,4-tetrahydropyrimidine-2,4-dione], 230 to 233 °C.
Consider `COc1cc(OC)nc(NC(=O)NS(=O)(=O)c2ncccc2C(=O)N(C)C)n1` [Nicosulfuron, reference compound], for which, in data set [1] (23 g ai/ha), the “Percent Control of Grass Weeds DIGSA” value is 80%, the “Percent Control of Grass Weeds ECHCG” value was found to be 95%, the “Percent Control of Grass Weeds SETVI” value worked out at 85% and the “Percent Control of Grass Weeds SORHA” value came to 85%. In data set [2] (23 g ai/ha), the “Percent Control of Broadleaf Weeds ABUTH” value is on record as 55%, the “Percent Control of Broadleaf Weeds AMARE” value was 70%, the “Percent Control of Broadleaf Weeds AMBEL” value is listed as 0% and the “Percent Control of Broadleaf Weeds CASOB” value is 30%. In data set [2] (23 g ai/ha), the “Percent Control of Broadleaf Weeds CHEAL” value worked out at 70% and the “Percent Control of Broadleaf Weeds IPOHE” value was 70%.
For `CCCCCCCCSC(=O)Oc1cc(Cl)nnc1-c1ccccc1` [Pyridate, reference compound], in data set [1] (527 g ai/ha), the “Percent Control of Grass Weeds DIGSA” value was 10%, the “Percent Control of Grass Weeds ECHCG” value was 50%, the “Percent Control of Grass Weeds SETVI” value came out at 95% and the “Percent Control of Grass Weeds SORHA” value is on record as 10%. In data set [2] (527 g ai/ha), the “Percent Control of Broadleaf Weeds ABUTH” value turned out to be 60%, the “Percent Control of Broadleaf Weeds AMARE” value amounted to 90%, the “Percent Control of Broadleaf Weeds AMBEL” value is 40% and the “Percent Control of Broadleaf Weeds CASOB” value was found to be 10%. Also, in data set [2] (527 g ai/ha), the “Percent Control of Broadleaf Weeds CHEAL” value turned out to be 85% and the “Percent Control of Broadleaf Weeds IPOHE” value is recorded as 80%.
